Biological target: T1, human IDO1 (Homo sapiens, UniProt P14902)
T1 construct: expressed in transfected cells
Assay: IDO inhibition assay in HEK293 cells stably expressing human IDO1 (Example 252)
Assay type: cell-based
Settings: 20 hours incubation, kynurenine by Ehrlich reagent, absorbance at 490 nm, read-out: HEK Human IDO-1 Potency
Protocol: 1HEK293 cells were transfected with a pCDNA-based mammalian expression vector harboring human IDO1 cDNA (NM 002164.2) by electroporation. They were cultured in medium (DMEM with 10% FBS) containing 1 mg/ml G418 for two weeks. Clones of HEK293 cells that stably expressed human IDO1 protein were selected and expanded for IDO inhibition assay.
The human IDO1/HEK293 cells were seeded at 10,000 cells per 50 μL per well with RPMI/phenol red free media contains 10% FBS in a 384-well black wall clear bottom tissue culture plate (Matrix Technologies LLC) 100 nL of certain concentration of compound was then added to each well using ECHO liquid handling systems. The cells were incubated for 20 hours in 37° C. incubator with 5% CO2.
The compound treatments were stopped by adding Trichloroacetic Acid (Sigma-Aldrich) to a final concentration at 0.2%. The cell plate was further incubated at 50° C. for 30 minute. The equal volume supernatant (20 μL) and 0.2% (w/v) Ehrlich reagent (4-dimethylaminobenzaldehyde, Sigma-Aldrich) in glacial acetic acid were mixed in a new clear bottom 384-well plate. This plate was then incubated at room temperature for 30 minute. The absorbance at 490 nm was measured on Envision plate reader.

T1 sequence (P14902 whole entry): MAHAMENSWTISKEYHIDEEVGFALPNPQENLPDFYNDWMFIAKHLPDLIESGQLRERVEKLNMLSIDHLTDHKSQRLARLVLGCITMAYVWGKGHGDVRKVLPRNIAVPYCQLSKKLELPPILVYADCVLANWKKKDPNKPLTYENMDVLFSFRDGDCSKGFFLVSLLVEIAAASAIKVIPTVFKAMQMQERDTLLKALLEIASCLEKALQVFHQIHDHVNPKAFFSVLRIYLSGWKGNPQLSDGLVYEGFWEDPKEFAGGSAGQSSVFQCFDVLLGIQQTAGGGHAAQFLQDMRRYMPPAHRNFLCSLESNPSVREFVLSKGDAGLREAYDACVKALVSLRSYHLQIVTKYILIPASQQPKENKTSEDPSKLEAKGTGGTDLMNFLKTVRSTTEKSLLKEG

With C[C@@H](C(=O)Nc1cccc(C(F)F)c1)[C@H]1CC[C@@H](c2ccnc3ccc(F)cc32)CC1 (relative stereo) [Example 63, (R)-N-(3-(difluoromethyl)phenyl)-2-((cis)-4-(6-fluoroquinolin-4-yl)cyclohexyl)propanamide] as the molecule, how does the IC50 read?
Its IC50 is less than 50 nM.

O=C(C[C@H]1CC[C@@H](c2ccnc3ccc(F)cc32)CC1)NC1CCCCC1 [Example 142, N-cyclohexyl-2-((cis)-4-(6-fluoroquinolin-4-yl)cyclohexyl) acetamide] was tested. Which IC50 did it give?
The IC50 was less than 250 nM.

How did the IC50 turn out when COCC(C(=O)Nc1ccc(Cl)cc1)N1CCN(c2ccnc3ccc(F)cc23)CC1 (single isomer, unassigned) [Example 136, N-(4-chlorophenyl)-2-(4-(6-fluoroquinolin-4-yl)piperazin-1-yl)-3-methoxypropanamide] was run?
Its IC50 is greater than 250 nM.

CC(C(=O)O)c1ccc(C[C@@H](C(=O)Nc2ccc(Cl)cc2)[C@H]2CC[C@@H](c3ccnc4ccc(F)cc43)CC2)cc1 (single isomer, unassigned) [Example 139] was tested. Which IC50 did it give?
Its IC50 is less than 50 nM.

Which IC50 does the source give for “N-(4-chlorophenyl)-2-(cis-4-(6-fluoroquinolin-4-yl)-1-hydroxycyclohexyl)propanamide [Example 232]” here?
The IC50 was less than 50 nM.

“N-(4-chlorophenyl)-2-(trans-4-(6-fluoroquinolin-4-yl)-1-hydroxycyclohexyl)propanamide [Example 229]” was tested. Which IC50 did it give?
The IC50 was less than 50 nM.

How did the IC50 turn out when C[C@@H](C(=O)NC1CCCCC1)[C@H]1CC[C@@H](c2ccnc3ccc(F)cc32)CC1 (relative stereo) [Example 141, (R)-N-cyclohexyl-2-((cis)-4-(6-fluoroquinolin-4-yl)cyclohexyl) propanamide] was run?
The IC50 was less than 50 nM.

For CC(C(=O)O)c1ccc(C[C@@H](C(=O)Nc2ccc(Cl)cc2)[C@H]2CC[C@@H](c3ccnc4ccccc43)CC2)cc1 (single isomer, unassigned) [Example 87b], which IC50 is on record?
Its IC50 is less than 50 nM.

For CC(C(=O)Nc1ccc(Cl)cc1)C1CCC(c2ccnc3c2ncn3C)CC1 (mixture of isomers) [Example 250, (+/−)-Cis and trans-N-(4-chlorophenyl)-2-(4-(3-methyl-3H-imidazo[4,5-b]pyridin-7-yl)cyclohexyl)propanamide], which IC50 is on record?
The IC50 was less than 250 nM.

“N-(4-chlorophenyl)-2-(cis-4-(6-fluoroquinolin-4-yl)-1-hydroxycyclohexyl)propanamide [Example 231]” was tested. Which IC50 did it give?
The IC50 was less than 250 nM.

Which IC50 does the source give for “N-(4-chlorophenyl)-2-(trans-4-(6-fluoroquinolin-4-yl)-1-hydroxycyclohexyl)propanamide [Example 230]” here?
The IC50 was less than 250 nM.

From patent US10533014B2, “Immunoregulatory agents” (Flexus Biosciences, Inc., priority 2014, dated 2020)
